In US20050154046A1, “Methods of treating an inflammatory-related disease” (priority 2004, published 2005):
Entries after “also recorded” stand apart in the source; their conditions may differ.

Assays:
IL-6 = IL-6 secretion (ELISA) in LPS-stimulated THP-1 cells; format: cell-based, human
Procedure: Standard IL-6 protein was used to establish a standard curve for the calculation of IL-6 in the medium secreted by the cells (LPS-stimulated or non-stimulated cells in the presence or absence of Meisoindigo).
1) Effects of Meisoindigo and NATURA on the expression/secretion of cytokines IL-1β, IL-6, IL-10: The human monocytic THP-1 cells grown exponentially were stimulated with or without 1 μM of lipopolysaccharide (LPS, Sigma), and exposed for 24 hours to different concentrations of Meisoindigo and NATURA (from 31.25 nM and 62.5 nM), respectively. Viability of cells was examined by trypan blue exception assay.

IL-6 mRNA = assay: IL-6 transcription (real time PCR) in LPS-stimulated THP-1 cells; format: cell-based, human; conditions: 1 μM, 1 μg/ml LPS, 24 h
Procedure: Real Time PCR: The effect of Meisoindigo on the transcription of IL-6 (RNA levels) was determined by a technique of real time polymerase chain reaction (real time PCR). Total RNA was extracted using a Qiagen […] the HPRT gene was used as internal control. Human monocytic THP-1 cells at exponential growth phase were exposed to 1 μg/ml of LPS, 1 μM of Meisoindigo, or 1 μg/ml of LPS plus 1 μM of Meisoindigo for 24 hours. The cells were then harvested, washed and total RNA extracted for real time PCR assay. Total RNA (300 ng) was treated with DNase I (Promega, Madison, Wis.), and SuperScript II (Invitrogen, Carlsbad, Calif.) and oligo(dT) were used for reverse transcription according to the manufacturers' instructions. Real-time PCR reactions were performed in a 25-μL volume containing diluted cDNA, Sybr Green PCR Master Mix (Applied Biosystems), and 2.5 μM each IL-6 gene-specific primer: […] and […] An ABI SDS7700 analyzer (Applied Biosystems) was used at 50° C. for 2 minutes and 95° C. for 10 minutes, followed by 40 cycles at 95° C. for 15 seconds and 60° C. for 1 minute. Test cDNA results were normalized to HPRT internal control measured on the same plate. After cycling, the specificity of amplification was validated by the generation of a melting curve through slow denaturation of the PCR products and then by gel electrophoresis.

TNF-α = TNF-α secretion (ELISA) in LPS-stimulated THP-1 cells; format: cell-based, human
Procedure: Methods: The cells were stimulated with or without […] of lipopolysaccharide (LPS, Sigma), and exposed for 24 hours to different concentrations of Meisoindigo (from 31.25 nM to 16,000 nM). Viability of cells was examined under microscope after trypan blue staining. Protein levels of IL-1β secreted into the culture media by the cells were then measured by ELISA and calculated from its standard curve using an assay Kit from R&D Systems according to instructions provided by the supplier. The method was established and validated by a good standard curve obtained. An example of the standard curve is shown in FIG. 2, panel A. The representative derivative Meisoindigo was used. The cell line and the procedure of ELISA to measure secretion of TNF-α were the same as described in Example 1, except the standard TNF-α protein was used to establish a standard curve for the calculation of the protein secreted in the medium by the cells (LPS-stimulated or non-stimulated cells in the presence or absence of Meisoindigo).

CDK2 = target: T1, CDK2 (Homo sapiens, UniProt P24941); assay: Cyclin dependent kinase activity in THP-1 cells (immunoprecipitation, histone H1 phosphorylation); format: cell-based; conditions: 24 h
T1 construct: endogenous in cells; host or cells: THP-1
Procedure: (§1) 2) Effects of Meisoindigo and/or NATURA on activity of cyclin dependent kinases (CDK) in THP-1 cells (99): THP-1 cells grown exponentially were exposed to […] of Meisoindigo or NATURA for 24 hr, respectively.
(§2) The cells were harvested, washed, and total proteins extracted as described previously (100). One hundred μg of the proteins were immuno-precipitated using antibodies against either cdk2, cdk4/6 or cyclin D1 overnight at 4° C. in the presence of a cocktail of protease inhibitors. The immuno-precipitates were washed 4 times with protein extraction buffer and once with kinase assay buffer, and reacted with […] histone H1 in the presence of [γ-^32P]-ATP (10 μCi/10 μM). The phosphorylated histone H1 (represent cdk activity) was measured by scintillation counting or by SDS-polyacrylaimde gel electrophoresis (101, 102).

cdk4/6 = assay: as above; format: cell-based, human; conditions: 31.25 and 62.5 nM, 24 h
Procedure: as §1, §2

THP-1 cells = assay: Viability of THP-1 cells by trypan blue staining; format: cell-based, human; conditions: up to 8 μM
Procedure: Methods: The cells were stimulated with or without […] of lipopolysaccharide (LPS, Sigma), and exposed for 24 hours to different concentrations of Meisoindigo (from 31.25 nM to 16,000 nM). Viability of cells was examined under microscope after trypan blue staining. Protein levels of IL-1β secreted into the culture media by the cells were then measured by ELISA and calculated from its standard curve using an assay Kit from R&D Systems according to instructions provided by the supplier. The method was established and validated by a good standard curve obtained.

IL-15 = IL-15 real time PCR in LPS-stimulated THP-1 cells; format: cell-based, human; conditions: data not shown
IL-2 = IL-2 secretion in LPS-stimulated THP-1 cells; format: cell-based, human; conditions: cells could not be stimulated to secrete IL-2
[1] = test system: scale epithelial cells of mouse-tails; assay: Mouse-tail model: granular layer formation in scale epithelial cells; format: in vivo, Kunming mice; conditions: 13 days
Text: Materials: Meisoindigo was synthesized, purified and its structure characterized by Natrogen Therapeutics, Inc. The purity of the compound was 98.5% as described in the Examples above. A suspension of Meisoindigo was freshly prepared in 0.5% sodium methylcellulose and given orally for the animal tests described below. Other chemicals used in the following experiments were purchased from Sigma.
Pathogen-free female Kunming mice at 12 weeks of age with body weights from 22 to 25 grams were housed 5 per cage, and given, ad libitum, fresh tap water and commercial rodent pellets. Animal rooms were controlled at 24±2° C. with a relative humidity of 60±5% and a 12 hour light/dark cycle (07:00-19:00 hr).
Effect of Meisoindigo on Epidermal Cell Differentiation in Mouse Tails: Sixty female Kunming mice were randomly divided into 5 groups, 20 in one control group, and 10 in 4 drug-tested groups. Meisoindigo was freshly prepared as a suspension in 0.5% of sodium methylcellulose. The drug was given orally at doses of 50, 100, and 200 mg/kg, respectively, once a day for 13 days. Methotrexate (MTX) was used as a positive control at a dose of 1 mg/kg, i.p. once every 2 days, for the same period of time. The same volume and vehicle for Meisoindigo suspension were used as a negative control. […] Slides were prepared for histological examination as originally described by Bosman et. al., (106). The slides were prepared by cutting the tails into longitudinal sections, and Hematoxylin and Eosin (H&E) stained. The slides were then examined with a light microscope to evaluate the degree of orthokeratosis (OK) and epidermal hyperplasia. The former was done by measuring the horizontal length of the fully developed granular layer stratum granulosum within an individual scale in relation to its total length. Drug activity was defined by the increase of the positive scale cells containing granular layer stratum granulosum between two folliculus pili.

[2] = LPS-stimulated THP-1 cells, LPS alone 100.00

`CN1C(=O)/C(=C2/C(=O)Nc3ccccc32)c2ccccc21` [Meisoindigo] was tested, and the “reduction of IL-6 secretion” value (IL-6; 31.25 nM, LPS 1 μg/ml, THP-1 cells) was “Approximately 85%”, the “IL-6 (Inhibition), Percentage of Maximal Response Without Cytotoxicity” value (IL-6; [2]) was 83.51 ± 5.41% and the “effect on IL-6 production/secretion” value (IL-6; as low as 31.25 nM (31.25 and 62.5 nM in FIG. 6), 24 h) was “significantly inhibit”. The “LPS-induced IL-6 transcription” value (IL-6 mRNA) was “completely suppressed; also recorded: significantly inhibits”, the “reduction of TNF-α secretion” value (TNF-α; 2.0 μM, 24 h) was “Approximately 50%” and the “inhibition of TNF-α secretion” value (TNF-α; 16 μM) was “complete inhibition”. The “effect on TNF-α secretion over the concentration series” value (TNF-α; 0.031 to 16 μM, 24 h) was “effectively inhibited; also recorded: concentration-dependent inhibition”, the “TNF-α (Inhibition), Percentage of Maximal Response Without Cytotoxicity” value (TNF-α; [2]) was 49.20 ± 3.37% and the “further reduction of TNF-α secretion on increasing the concentration” value (TNF-α; up to 8 μM) was “did not cause further reduction”. The “partial inhibition of CDK activity” value (CDK2; 1.5 μM, FIG. 6B) was 23%, the “inhibition of CDK2 activity” value (CDK2; 31.25 and 62.50 nM) was “failed to inhibit; also recorded: no inhibitory effect” and the “inhibition of cyclin dependent kinase 4 and 6 activity” value (cdk4/6) was “failed to inhibit”. For the same compound, the cell deaths (THP-1 cells) was “no cell deaths were observed”, the “inhibition on IL-15 (real time PCR)” value (IL-15) was “moderate inhibition” and the “effect on IL-2 secretion” value (IL-2) was “no effects were observed”. The “Granulous Scales (X ± SD)” value ([1]; 50.0 mg/kg orally once a day) was 22.37 ± 6.20, the “Granulous Scales (X ± SD)” value ([1]; 100.0 mg/kg orally once a day) was 25.98 ± 4.12 and the “Granulous Scales (X ± SD)” value ([1]; 200.0 mg/kg orally once a day) was 31.30 ± 7.92.
